Where only a bound is given, the exact number is not on record here.

Data set [1] has as its system AGS. Put plainly: Anti-proliferative activity against human AGS cells after 48 hrs by MTT assay. It counts as functional, cell-based.
Another data set deals with L02. Kind of data set: (§1) Anti-proliferative activity against human L02 cells after 48 hrs by MTT assay. On the set-up: inhibition at 48 h: concentration or dose not given beside the values. It counts as ADME, cell-based. The note with it: Homo sapiens, L02, 48 h.
The subject of data set [2] is AGS. Kind of data set: Growth inhibition of human AGS cells at 100 uM after 48 hrs by MTT assay relative to control. It counts as functional. As to conditions: read-out: GI.
Data set [3] is described as follows: Selectivity index, ratio of IC50 for human L02 cells to IC50 for human AGS cells. It counts as functional.
Data set [4] is described as follows: as §1. As to conditions: human, L02 cells. It counts as ADME, cell-based. Also noted: inhibition at 48 h: concentration or dose not given beside the values.
In data set [5] the test system is AGS. Kind of data set: Induction of apoptosis in human AGS cells assessed as late apoptotic cells at 10 uM after 48 hrs by Annexin-V-FITC/propidium iodide staining based flow cytometry (reference value: 0.3%). It counts as functional.
Data set [6] deals with AGS. Put plainly: Induction of apoptosis in human AGS cells assessed as necrotic cells at 0.1 uM after 48 hrs by Annexin-V-FITC/propidium iodide staining based flow cytometry (reference value: 2%). It counts as functional.
In data set [7] the test system is AGS. Put plainly: Cell cycle arrest in human AGS cells assessed as accumulation at G1 phase at 0.1 uM after 48 hrs by propidium iodide staining based flow cytometry (reference value: 77.02%). It counts as functional.
The subject of data set [8] is AGS. Put plainly: Induction of apoptosis in human AGS cells assessed as early apoptotic cells at 0.1 uM after 48 hrs by Annexin-V-FITC/propidium iodide staining based flow cytometry (reference value: 0.2%). It counts as functional.
For data set [9], the system named is AGS. Put plainly: Induction of apoptosis in human AGS cells assessed as necrotic cells at 10 uM after 48 hrs by Annexin-V-FITC/propidium iodide staining based flow cytometry (reference value: 2%). It counts as functional.
The test system of data set [10] is AGS. Kind of data set: Induction of apoptosis in human AGS cells assessed as early apoptotic cells at 10 uM after 48 hrs by Annexin-V-FITC/propidium iodide staining based flow cytometry (reference value: 0.2%). It counts as functional.
The subject of data set [11] is AGS. Put plainly: Cell cycle arrest in human AGS cells assessed as accumulation at S phase at 10 uM after 48 hrs by propidium iodide staining based flow cytometry (reference value: 6.57%). It counts as functional.
Data set [12] deals with AGS. Kind of data set: Induction of apoptosis in human AGS cells assessed as late apoptotic cells at 0.1 uM after 48 hrs by Annexin-V-FITC/propidium iodide staining based flow cytometry (reference value: 0.3%). It counts as functional.
Data set [13] has as its system AGS. Put plainly: Cell cycle arrest in human AGS cells assessed as accumulation at S phase at 0.1 uM after 48 hrs by propidium iodide staining based flow cytometry (reference value: 6.57%). It counts as functional.
In data set [14] the test system is AGS. Put plainly: Cell cycle arrest in human AGS cells assessed as accumulation at G2 phase at 10 uM after 48 hrs by propidium iodide staining based flow cytometry (reference value: 16.41%). It counts as functional.
Data set [15] relates to AGS. Put plainly: Cell cycle arrest in human AGS cells assessed as accumulation at G2 phase at 0.1 uM after 48 hrs by propidium iodide staining based flow cytometry (reference value: 16.41%). It counts as functional.
Data set [16] concerns AGS. Kind of data set: Induction of apoptosis in human AGS cells assessed as viable cells at 10 uM after 48 hrs by Annexin-V-FITC/propidium iodide staining based flow cytometry (reference value: 97.5%). It counts as functional. The note with it: read-out: Activity.
For data set [17], the system named is AGS. Kind of data set: Induction of apoptosis in human AGS cells assessed as viable cells at 0.1 uM after 48 hrs by Annexin-V-FITC/propidium iodide staining based flow cytometry (reference value: 97.5%). It counts as functional. The note with it: read-out: Activity.
Data set [18] deals with AGS. Kind of data set: Cell cycle arrest in human AGS cells assessed as accumulation at G1 phase at 10 uM after 48 hrs by propidium iodide staining based flow cytometry (reference value: 77.02%). It counts as functional.

Regarding `O=c1ccc2cc3ccoc3c(OCc3cn(Cc4ccc(Cl)cc4)nn3)c2o1`, the IC50 is 93.2 µM in the data set on AGS [1] and above 100 µM in the data set on L02. Also, the inhibition of growth at 100 µM in the data set with AGS [2] was determined as 53.2%. The “Ratio IC50” value in [3] was above 1.1.

For the molecule `Cc1cn(-c2ccc(C(F)(F)F)cc2)nn1`, the IC50 in the data set on AGS [1] and in the data set on L02 was above 100 µM in each case. This molecule also registered an inhibition at 48 h in data set [4] of 9.4%. Besides, the inhibition of growth at 100 µM in the data set with AGS [2] worked out at 44.5%.

As to `Cc1nncn1-c1ccc(F)cc1`, the IC50 with AGS [1] and with L02 was above 100 µM throughout. In data set [4], the inhibition at 48 h amounted to 16.9%. In addition, the inhibition of growth at 100 µM in the data set with AGS [2] was 13.9%.

As for `O=c1ccc2cc3ccoc3c(OCc3cn(-c4ccccc4F)nn3)c2o1`, the inhibition of growth at 100 µM in the data set on AGS [2] is 39.6%.

Consider `O=c1ccc2cc3ccoc3c(OCc3cn(Cc4ccccc4Cl)nn3)c2o1`, for which the inhibition of growth at 100 µM in the data set on AGS [2] came out at 33.2%.

Take `O=c1ccc2cc3ccoc3c(OCc3nncn3-c3ccc(F)cc3)c2o1`: the results for the IC50 in the data set with AGS [1] and with L02 were 13.1 µM and 94.2 µM, respectively. The same molecule registered an inhibition at 48 h in [4] of 53.1%. In the data set with AGS [2], the inhibition of growth at 100 µM was determined as 72.3%. The “Ratio IC50” value in data set [3] worked out at 7.2.

`O=c1[nH]cc(F)c(=O)[nH]1` [FLUOROURACIL] gave an IC50 in the data set with AGS [1] of 29.6 µM. Moreover, the inhibition of growth at 100 µM with AGS [2] amounted to 74.9%.

Consider `O=c1ccc2cc3ccoc3c(OCc3cn(Cc4c(Cl)cccc4Cl)nn3)c2o1`, for which, in the data set on AGS [2], the inhibition of growth at 100 µM worked out at 32.5%.

Turning to `Cc1ccc(Cn2cc(COc3c4occc4cc4ccc(=O)oc34)nn2)cc1`, the inhibition of growth at 100 µM in the data set with AGS [2] came to 47%.

In the case of `Cc1ccc(-n2cc(COc3c4occc4cc4ccc(=O)oc34)nn2)cc1`, the IC50 was 33.2 µM with AGS [1] and above 100 µM in the data set with L02. Besides, the inhibition of growth at 100 µM in the data set with AGS [2] stood at 65.6%. In addition, the “Ratio IC50” value in data set [3] was above 3.

In the case of `O=c1ccc2cc3ccoc3c(OCc3cn(Cc4cccc(C(F)(F)F)c4)nn3)c2o1`, the IC50 with AGS [1] and in the data set with L02 was above 100 µM throughout. Also, the inhibition of growth at 100 µM with AGS [2] is 51.7%.

On to `COc1ccc(-n2cc(COc3c4occc4cc4ccc(=O)oc34)nn2)cc1`, for which the IC50 with AGS [1] was 94.6 µM; in the data set on L02, above 100 µM. The inhibition of growth at 100 µM in the data set on AGS [2] is 53.2%. In addition, in data set [3], the “Ratio IC50” value was above 1.1.

As for `O=c1ccc2cc3ccoc3c(OCc3cn(-c4ccc(Cl)cc4)nn3)c2o1`, the IC50 in the data set with AGS [1] was 8.2 µM; in the data set with L02 it was above 100 µM. For the same molecule, the inhibition of growth at 100 µM in the data set with AGS [2] worked out at 89.6%. Besides, in data set [3], the “Ratio IC50” value is on record as above 12.2.

On to `O=c1ccc2cc3ccoc3c(OCc3nncn3-c3ccc(C(F)(F)F)cc3)c2o1`, for which the IC50 with AGS [1] is 41 µM; with L02, above 100 µM. The inhibition of growth at 100 µM with AGS [2] was 52.9%. Also, the “Ratio IC50” value in data set [3] was above 2.4.

For the molecule `O=c1ccc2cc3ccoc3c(OCc3cn(Cc4ccccc4)nn3)c2o1`, the inhibition of growth at 100 µM in the data set on AGS [2] came out at 24.4%.

Regarding `O=c1ccc2cc3ccoc3c(OCc3cn(-c4ccccc4)nn3)c2o1`, the inhibition of growth at 100 µM with AGS [2] was found to be 46.4%.

Regarding `O=c1ccc2cc3ccoc3c(OCc3cn(Cc4cccc(Cl)c4)nn3)c2o1`, in the data set on AGS [2], the inhibition of growth at 100 µM came to 49.5%.

For `Cc1ccc(-n2cnnc2COc2c3occc3cc3ccc(=O)oc23)cc1`, the inhibition of growth at 100 µM in the data set with AGS [2] was found to be 39.4%.

Regarding `O=c1ccc2cc3ccoc3c(OCc3nncn3-c3ccccc3)c2o1`, the inhibition of growth at 100 µM with AGS [2] came to 40.1%.

Regarding `COc1c2occc2cc2ccc(=O)oc12` [METHOXSALEN], the IC50 in the data set with AGS [1] and in the data set with L02 was above 100 µM in each case. The molecule further had an inhibition at 48 h in data set [4] of 3.3%. In addition, the inhibition of growth at 100 µM in the data set on AGS [2] was found to be 35.3%.

As to `O=c1ccc2cc3ccoc3c(OCc3cn(Cc4ccc(Cl)cc4Cl)nn3)c2o1`, the IC50 with AGS [1] was determined as 26.5 µM; with L02, 90.2 µM. Moreover, the inhibition of growth at 100 µM in the data set on AGS [2] is 67.7%. Moreover, the “Ratio IC50” value in [3] is 3.4.

In the case of `O=c1ccc2cc3ccoc3c(OCc3cn(Cc4ccccc4F)nn3)c2o1`, the inhibition of growth at 100 µM in the data set with AGS [2] came out at 25.5%.

As for `O=c1ccc2cc3ccoc3c(OCc3cn(-c4ccc(F)cc4)nn3)c2o1`, the IC50 in the data set on AGS [1] is 10.7 µM; with L02, above 100 µM. In addition, the inhibition of growth at 100 µM with AGS [2] came out at 70.4%. Also, the “Ratio IC50” value in data set [3] is on record as above 9.3.

As to `COc1ccc(-n2cnnc2COc2c3occc3cc3ccc(=O)oc23)cc1`, in the data set with AGS [2], the inhibition of growth at 100 µM was found to be 34.4%.

With `O=c1ccc2cc3ccoc3c(OCc3cn(Cc4ccc(F)cc4)nn3)c2o1`, in the data set with AGS [2], the inhibition of growth at 100 µM was 43.1%.

As to `O=c1ccc2cc3ccoc3c(OCc3cn(Cc4cccc(F)c4)nn3)c2o1`, the inhibition of growth at 100 µM in the data set with AGS [2] was determined as 30.1%.

With `O=c1ccc2cc3ccoc3c(OCc3nncn3-c3ccc(Cl)cc3)c2o1`, the inhibition of growth at 100 µM with AGS [2] amounted to 40.3%.

Consider `O=c1ccc2cc3ccoc3c(OCc3cn(-c4ccc(C(F)(F)F)cc4)nn3)c2o1`, for which the 50% inhibitory concentration (IC50) is 7.5 µM with AGS [1] and above 100 µM in the data set with L02. The Activity in the data set on AGS [5] is listed as 1%; with AGS [6] it was 1.8%; in the data set with AGS [7], 61.1%; with AGS [8] it was 0.3%; with AGS [9] it was 1.7%; with AGS [10] it was 0.9%. The Activity in the data set on AGS [11] turned out to be 12.08%; in the data set on AGS [12], 0.8%; in the data set on AGS [13], 7.17%; in the data set with AGS [14] it was 38.17%; in the data set with AGS [15], 31.73%; in the data set with AGS [18], 49.76%. In addition, in [4], the inhibition at 48 h was 33.9%. In addition, in the data set on AGS [2], the inhibition of growth at 100 µM is 92.4%. Further, in the data set on AGS [16], the viability at 10 µM amounted to 96.4%. Also, the viability at 0.1 µM with AGS [17] stood at 96.2%. The “Ratio IC50” value in data set [3] is given as above 13.3.

On to `O=c1ccc2cc3ccoc3c(OCc3nncn3-c3ccccc3Cl)c2o1`, for which the inhibition of growth at 100 µM with AGS [2] came to 45.2%.

The values above are taken from ChEMBL document CHEMBL4043250 (Bioorg Med Chem Lett, 2017).
